Experimental findings from patent publication US8202731B2, “HPTS-mono and bis Cys-MA polymerizable fluorescent dyes for use in analyte sensors” (Glumetrics, Inc., priority 2007, dated 2012) are described below.

Common to all, as to type: physicochemical
Series [1] in a line: Fluorescence of the dye in pH 7.4 PBS measured on the fluorimeter. The conditions noted are these: pH 7.4 PBS (FIG. 9). As to the method:
Bis-MA was dissolved in pH 7.4 PBS and its fluorescence was measured on the fluorimeter. FIG. 9 compares Bis-MA with the Mono- and Tri-substituted HPTS derivatives.

Series [2] can be described thus: Determination of dye pKa via pH study, dye immobilized in 40% DMAA hydrogel. The protocol:
A hydrogel was prepared containing mono-CysMA, as described previously in U.S. patent application Ser. No. 11/671,880, to evaluate the fluorescence properties (excitation (ex), emission (em) and pKa) of mono-CysMA.
A pH study was carried out with the gel.
The three polymerizable dyes were immobilized using 40% DMAA and their pKa determined via a pH study.

Series [3] is described as follows: Comparison of dyes: emission/absorbance ratio (apparent quantum yield) in pH 7.4 PBS. The note with it: 1 × 10^−5 M in pH 7.4 PBS.

`C=C(C)C(=O)NCCCNS(=O)(=O)c1cc(S(=O)(=O)NCCCNC(=O)C(=C)C)c2ccc3c(S(=O)(=O)[O-])cc(O)c4ccc1c2c43.[Na+]` [Bis-MA]: the “Shift of fluorescence spectrum relative to mono- and tri-substituted HPTS derivatives” value in series [1] is “red-shifted relative to the Mono product but blue-shifted relative to the Tri product”.

Consider `O=S(=O)(O)c1cc(O)c2ccc3c(S(=O)(=O)O)cc(S(=O)(=O)O)c4ccc1c2c34` [HPTS, 8-hydroxypyrene-1,3,6-trisulfonic acid], for which the pKa worked out at 7.3 in series [2] (dye immobilized in 40% DMAA hydrogel, polymerizable dyes immobilized using 40% DMAA, pH study) and 7.3 in series [2] (pH study with hydrogel containing mono-CysMA (FIG. 2), HPTS given for comparison). Besides, the Absorbance in series [3] was 0.1565. Moreover, the Intensity at max in series [3] (emission) was 553. Also, the “Ratio (“Quantum Yield”)” value in series [3] (Em/Abs ratio, apparent quantum yield, arbitrary numbers) is 3533.
